From DBAASP
≈ marks a conversion by molar mass, not a printed value. Values belong to the compound of their own block, whether it stands above or below them.

Assays:
Assay in all cases: ≥ marks a high value that may be exact or a test limit, other limits are often not marked, values filed in µg/mL are converted to µM
[1] = test system: Bacillus subtilis ATCC 6051
Candida albicans = test system: Candida albicans
Aspergillus fumigatus = test system: Aspergillus fumigatus
Escherichia coli K-12 = test system: Escherichia coli K-12
Klebsiella pneumoniae = test system: Klebsiella pneumoniae
[2] = test system: Staphylococcus aureus NCTC 8325-4
[3] = test system: Pseudomonas aeruginosa PAO1
[4] = test system: Staphylococcus aureus ATCC 6538P
Escherichia coli JM109 = test system: Escherichia coli JM109
Staphylococcus aureus = test system: Staphylococcus aureus
[5] = test system: Klebsiella pneumoniae ATCC 13883
[6] = test system: Salmonella enterica subsp. enterica serovar Typhimurium ATCC 14028
Bacillus subtilis = test system: Bacillus subtilis
[7] = test system: Streptococcus pyogenes ATCC 19615
Escherichia coli = test system: Escherichia coli
[8] = test system: Staphylococcus aureus ATCC 25923
[9] = test system: Pseudomonas aeruginosa ATCC 27853
[10] = test system: Enterococcus faecalis ATCC 29212
[11] = test system: Staphylococcus aureus USA 300
[12] = test system: Staphylococcus aureus USA 300 LAC
Escherichia coli AS1.349 = test system: Escherichia coli AS1.349
[13] = test system: Pseudomonas aeruginosa CGMCC 1.860
[14] = test system: Enterococcus faecium CGMCC 1.2334
[15] = test system: Lactococcus lactis AS1.1690
[16] = test system: Enterococcus faecalis CGMCC 1.595
[17] = test system: Staphylococcus aureus AS1.72
[18] = test system: Acinetobacter baumannii CICC 22934
[19] = test system: Enterobacter cloacae CGMCC 1.58
Bacillus cereus AS1.126 = test system: Bacillus cereus AS1.126
[20] = test system: Klebsiella aerogenes CGMCC 1.876
[21] = test system: Klebsiella pneumoniae subsp. pneumoniae CGMCC 1.176
[22] = test system: Proteus mirabilis CICC 22931
[23] = test system: Escherichia coli ATCC 25922

- MIC (Escherichia coli AS1.349): ≥ 100 µM
- MIC [13]: ≥ 100 µM
- MIC [14]: 18.8 µM (≈ 41.5 µg/mL)
- MIC [15]: 18.8 µM (≈ 41.5 µg/mL)
- MIC [16]: 18.8 µM (≈ 41.5 µg/mL)
- MIC [17]: 12.5 µM (≈ 27.6 µg/mL)
- MIC [18]: ≥ 100 µM
- MIC [19]: ≥ 100 µM
- MIC (Bacillus cereus AS1.126): 9.38 µM (≈ 20.7 µg/mL)
- MIC [20]: ≥ 100 µM
- MIC [21]: ≥ 100 µM
- MIC [22]: ≥ 100 µM
Compound: CC(C)C[C@H](NC(=O)[C@H](CCCCN)NC(=O)[C@H](CCCN=C(N)N)NC(=O)[C@H](Cc1cnc[nH]1)NC(=O)[C@H](C)NC(=O)[C@H](CCCN=C(N)N)NC(=O)[C@H](Cc1cnc[nH]1)NC(=O)CNC(=O)[C@H](Cc1ccccc1)NC(=O)[C@H](CCCN=C(N)N)NC(=O)[C@H](CCCN=C(N)N)NC(=O)[C@H](CC(C)C)NC(=O)[C@H](Cc1cnc[nH]1)NC(=O)[C@H](CCCN=C(N)N)NC(=O)CNC(=O)[C@@H](NC(=O)[C@H](CCCCN)NC(=O)[C@@H](N)CO)C(C)C)C(=O)O [SKVGRHLRRFGHRAHRKL]

- MIC (Escherichia coli AS1.349): ≥ 100 µM
- MIC [13]: ≥ 100 µM
- MIC [14]: 3.13 µM (≈ 7.1 µg/mL)
- MIC [15]: 4.69 µM (≈ 10.6 µg/mL)
- MIC [16]: 4.69 µM (≈ 10.6 µg/mL)
- MIC [17]: 2.34 µM (≈ 5.31 µg/mL)
- MIC [18]: ≥ 100 µM
- MIC [19]: ≥ 100 µM
- MIC (Bacillus cereus AS1.126): 2.34 µM (≈ 5.31 µg/mL)
- MIC [20]: ≥ 100 µM
- MIC [21]: ≥ 100 µM
- MIC [22]: ≥ 100 µM
Compound: CC(C)C[C@H](NC(=O)[C@H](CCCCN)NC(=O)[C@H](CCCN=C(N)N)NC(=O)[C@H](Cc1cnc[nH]1)NC(=O)[C@H](C)NC(=O)[C@H](CCCN=C(N)N)NC(=O)[C@H](Cc1cnc[nH]1)NC(=O)[C@H](CC(C)C)NC(=O)[C@H](Cc1ccccc1)NC(=O)[C@H](CCCN=C(N)N)NC(=O)[C@H](CCCN=C(N)N)NC(=O)[C@H](CC(C)C)NC(=O)[C@H](Cc1cnc[nH]1)NC(=O)[C@H](CCCN=C(N)N)NC(=O)CNC(=O)[C@@H](NC(=O)[C@H](CCCCN)NC(=O)[C@@H](N)CO)C(C)C)C(=O)O [SKVGRHLRRFLHRAHRKL]

- MIC [5]: 25 µM (≈ 32.5 µg/mL)
- MIC [23]: 6.2 µM (≈ 8.06 µg/mL)
- MIC [11]: 3.1 µM (≈ 4.03 µg/mL)
- MIC [3]: > 50 µM
- MIC [12]: 3.1 µM (≈ 4.03 µg/mL)
Compound: CC[C@H](C)[C@H](NC(=O)[C@H](CCCN=C(N)N)NC(=O)[C@H](CCCN=C(N)N)NC(=O)[C@H](CC(C)C)NC(=O)[C@H](Cc1c[nH]c2ccccc12)NC(=O)[C@H](Cc1c[nH]c2ccccc12)NC(=O)[C@@H](N)Cc1c[nH]c2ccccc12)C(=O)N[C@@H](Cc1c[nH]c2ccccc12)C(N)=O [WWWLRRIW]

- MIC [5]: 8.8 µM (≈ 11.2 µg/mL)
- MIC [23]: 12.5 µM (≈ 15.9 µg/mL)
- MIC [12]: 2.16 µM (≈ 2.74 µg/mL)
Compound: CC[C@H](C)[C@H](NC(=O)[C@H](CCCCN)NC(=O)[C@H](CCCN=C(N)N)NC(=O)[C@H](CC(C)C)NC(=O)[C@H](Cc1c[nH]c2ccccc12)NC(=O)[C@H](Cc1c[nH]c2ccccc12)NC(=O)[C@H](Cc1c[nH]c2ccccc12)NC(=O)[C@@H](N)Cc1c[nH]c2ccccc12)C(N)=O [WWWWLRKI]

Continued, compound first:

Compound: CC(C)C[C@H](NC(=O)[C@H](C)N)C(=O)N[C@@H](Cc1c[nH]c2ccccc12)C(=O)N[C@@H](Cc1cnc[nH]1)C(=O)N[C@@H](Cc1cnc[nH]1)C(=O)N[C@@H](CC(C)C)C(=O)N[C@@H](CC(C)C)C(=O)N[C@@H](Cc1cnc[nH]1)C(=O)N[C@@H](Cc1cnc[nH]1)C(=O)N[C@@H](CC(C)C)C(=O)N[C@@H](CC(C)C)C(=O)N[C@@H](Cc1cnc[nH]1)C(=O)N[C@@H](CO)C(=O)N[C@@H](C)C(=O)N[C@@H](Cc1cnc[nH]1)C(=O)N[C@@H](Cc1cnc[nH]1)C(=O)N[C@@H](CC(C)C)C(=O)NCC(N)=O [ALWHHLLHHLLHSAHHLG]
- MIC [1]: 1.88 µM (≈ 3.99 µg/mL)

Compound: N[C@@H](Cc1ccccc1)C(=O)N1CCC[C@H]1C(=O)N[C@@H](Cc1c[nH]c2ccccc12)C(=O)N[C@@H](Cc1c[nH]c2ccccc12)C(=O)N[C@@H](Cc1c[nH]c2ccccc12)C(=O)N1CCC[C@H]1C(=O)N[C@@H](Cc1ccccc1)C(=O)O [FPWWWPF]
- MIC (Candida albicans): > 939 µM
- MIC (Aspergillus fumigatus): ≥ 469 µM

Compound: CC[C@H](C)[C@H](N)C(=O)N[C@@H](CCCCN)C(=O)N[C@@H](CCCCN)C(=O)N[C@H](C(=O)N[C@H](C(=O)N[C@@H](CCCCN)C(=O)N[C@@H](CCCCN)C(=O)N[C@H](C(N)=O)[C@@H](C)CC)[C@@H](C)CC)[C@@H](C)CC [IKKIIKKI]
- MIC (Escherichia coli K-12): ≥ 500 µM
- MIC (Klebsiella pneumoniae): > 500 µM
- MIC [2]: ≥ 500 µM
- MIC [3]: > 500 µM

Compound: CC(C)C[C@H](NC(=O)[C@H](CC(C)C)NC(=O)[C@H](CCCCN)NC(=O)[C@H](CC(C)C)NC(=O)[C@H](CC(C)C)NC(=O)[C@H](CCCCN)NC(=O)[C@H](CCCCN)NC(=O)[C@H](CC(C)C)NC(=O)[C@@H](N)CC(C)C)C(N)=O [LLKKLLKLL]
- MIC [1]: 1.56 µM (≈ 1.69 µg/mL)
- MIC (Escherichia coli K-12): 1.56 µM (≈ 1.69 µg/mL)
- MIC [4]: 1.56 µM (≈ 1.69 µg/mL)
- MIC [3]: 1.56 µM (≈ 1.69 µg/mL)

Compound: CC[C@H](C)[C@H](NC(=O)[C@H](C)NC(=O)[C@H](CC(C)C)NC(=O)[C@H](CCCN=C(N)N)NC(=O)[C@H](Cc1cnc[nH]1)NC(=O)[C@H](C)NC(=O)[C@H](C)NC(=O)[C@H](CCCN=C(N)N)NC(=O)[C@@H](N)CC(C)C)C(=O)NCC(=O)N[C@@H](CCCN=C(N)N)C(=O)N[C@@H](CCCN=C(N)N)C(N)=O [LRAAHRLAIGRR]
- MIC [4]: 4.32 µM (≈ 6 µg/mL)
- MIC (Escherichia coli JM109): 11.5 µM (≈ 16 µg/mL)
- MIC (Staphylococcus aureus): 46.1 µM (≈ 64 µg/mL)

Compound: CC(C)C[C@H](N)C(=O)N[C@@H](Cc1ccc(O)cc1)C(=O)N[C@@H](CCCN=C(N)N)C(=O)N[C@@H](CCCN=C(N)N)C(=O)N[C@@H](CCCN=C(N)N)C(=O)N[C@@H](Cc1ccccc1)C(=O)N[C@H](C(=O)N[C@H](C(=O)NCC(=O)N[C@@H](CCCN=C(N)N)C(N)=O)C(C)C)C(C)C [LYRRRFVVGR]
- MIC [5]: ≥ 200 µM
- MIC [6]: 200 µM (≈ 264 µg/mL)
- MIC (Bacillus subtilis): ≥ 50 µM
- MIC [7]: ≥ 50 µM
- MIC (Escherichia coli): 50 µM (≈ 66 µg/mL)
- MIC [8]: 25 µM (≈ 33 µg/mL)
- MIC [9]: 200 µM (≈ 264 µg/mL)
- MIC [10]: 25 µM (≈ 33 µg/mL)

Compound: CC[C@H](C)[C@H](NC(=O)[C@H](CC(=O)O)NC(=O)[C@H](Cc1c[nH]c2ccccc12)NC(=O)[C@H](CC(C)C)NC(=O)[C@@H](N)CCCN=C(N)N)C(=O)N[C@H](C(=O)N[C@@H](CCCN=C(N)N)C(=O)N[C@@H](CCCN=C(N)N)C(=O)N[C@@H](Cc1c[nH]c2ccccc12)C(=O)N[C@H](C(=O)NCC(=O)N[C@@H](Cc1c[nH]c2ccccc12)C(=O)N[C@@H](CC(C)C)C(N)=O)C(C)C)C(C)C [RLWDIVRRWVGWL]
- MIC [8]: 2.28 µM (≈ 4 µg/mL)
- MIC [11]: 1.14 µM (≈ 2 µg/mL)
- MIC [3]: 9.12 µM (≈ 16 µg/mL)
- MIC [12]: 4.56 µM (≈ 8 µg/mL)

Compound: CC(C)C[C@H](NC(=O)[C@H](CCCCN)NC(=O)[C@H](CCCN=C(N)N)NC(=O)[C@H](Cc1cnc[nH]1)NC(=O)[C@H](C)NC(=O)[C@H](CCCN=C(N)N)NC(=O)[C@H](Cc1cnc[nH]1)NC(=O)CNC(=O)[C@H](Cc1ccccc1)NC(=O)[C@H](CCCN=C(N)N)NC(=O)[C@H](CCCN=C(N)N)NC(=O)CNC(=O)[C@H](Cc1cnc[nH]1)NC(=O)[C@H](CCCN=C(N)N)NC(=O)CNC(=O)[C@@H](NC(=O)[C@H](CCCCN)NC(=O)[C@@H](N)CO)C(C)C)C(=O)O [SKVGRHGRRFGHRAHRKL]
- MIC (Escherichia coli AS1.349): ≥ 100 µM
- MIC [13]: ≥ 100 µM
- MIC [14]: ≥ 100 µM
- MIC [15]: ≥ 100 µM
- MIC [16]: ≥ 100 µM
- MIC [17]: ≥ 100 µM
- MIC [18]: ≥ 100 µM
- MIC [19]: ≥ 100 µM
- MIC (Bacillus cereus AS1.126): ≥ 100 µM
- MIC [20]: ≥ 100 µM
- MIC [21]: ≥ 100 µM
- MIC [22]: ≥ 100 µM
